System: P. Falciparum NF54
Assay: Plasmodium falciparum in vitro assay ([3H]-hypoxanthine incorporation)
Type: cell-based
Settings: Plasmodium falciparum, Erythrocyte, P. Falciparum NF54, erythrocytic stages in human red blood cells, 50% human serum
Outline: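 This in vitro antimalarial assay used P. falciparum erythrocytic stages cultured in human erythrocytes and measured [3H]-hypoxanthine incorporation. Radioactivity on the dried filters, placed in plastic foil with 10 mL scintillation fluid, was counted in a Betaplate liquid scintillation counter. Sigmoidal inhibition curves built in Microsoft Excel gave the IC50.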

SMILES | IC50
CN(c1ccncc1)c1ccc(CN(C(=O)/C=C/c2cccc(F)c2)C2CCN(Cc3ccccc3)CC2)cc1 [Example 156, (E)-N-(1-Benzyl-piperidin-4-yl)-3-(3-fluoro-phenyl)-N-[4-(methyl-pyridin-4-yl-amino)-benzyl]-acrylamide] | 101 nM
CN(c1ccncc1)c1ccc(CN(C(=O)/C=C/c2ccccc2F)C2CCN(Cc3ccccc3)CC2)cc1 [Example 157, (E)-N-(1-Benzyl-piperidin-4-yl)-3-(2-fluoro-phenyl)-N-[4-(methyl-pyridin-4-yl-amino)-benzyl]-acrylamide] | 190 nM
Cc1ccc(/C=C/C(=O)N(Cc2ccc(N(C)c3ccncc3)cc2)C2CCN(Cc3ccccc3)CC2)cc1 [Example 158, (E)-N-(1-Benzyl-piperidin-4-yl)-N-[4-(methyl-pyridin-4-yl-amino)-benzyl]-3-p-tolyl-acrylamide] | 190 nM
Cc1cccc(/C=C/C(=O)N(Cc2ccc(N(C)c3ccncc3)cc2)C2CCN(Cc3ccccc3)CC2)c1 [Example 159, (E)-N-(1-Benzyl-piperidin-4-yl)-N-[4-(methyl-pyridin-4-yl-amino)-benzyl]-3-m-tolyl-acrylamide] | 195 nM
Cc1ccccc1/C=C/C(=O)N(Cc1ccc(N(C)c2ccncc2)cc1)C1CCN(Cc2ccccc2)CC1 [Example 160, (E)-N-(1-Benzyl-piperidin-4-yl)-N-[4-(methyl-pyridin-4-yl-amino)-benzyl]-3-o-tolyl-acrylamide] | 167 nM
CN(c1ccncc1)c1ccc(CN(C(=O)/C=C/c2ccc(C(F)(F)F)nc2)C2CCN(Cc3ccccc3)CC2)cc1 [Example 161, (E)-N-(1-Benzyl-piperidin-4-yl)-N-[4-(methyl-pyridin-4-yl-amino)-benzyl]-3-(6-trifluoromethyl-pyridin-3-yl)-acrylamide] | 58 nM
CN(c1ccncc1)c1ccc(CN(C(=O)/C=C/c2ccc(S(C)(=O)=O)cc2)C2CCN(Cc3ccccc3)CC2)cc1 [Example 162, (E)-N-(1-Benzyl-piperidin-4-yl)-3-(4-methanesulfonyl-phenyl)-N-[4-(methyl-pyridin-4-yl-amino)-benzyl]-acrylamide] | 160 nM
Cc1nc(C)c(/C=C/C(=O)N(Cc2ccc(N(C)c3ccncc3)cc2)C2CCN(Cc3ccccc3)CC2)s1 [Example 163, (E)-N-(1-Benzyl-piperidin-4-yl)-3-(2,4-dimethyl-thiazol-5-yl)-N-[4-(methyl-pyridin-4-yl-amino)-benzyl]-acrylamide] | 289 nM
Cc1c(/C=C/C(=O)N(Cc2ccc(N(C)c3ccncc3)cc2)C2CCN(Cc3ccccc3)CC2)cnn1C [Example 164, (E)-N-(1-Benzyl-piperidin-4-yl)-3-(1,5-dimethyl-1H-pyrazol-4-yl)-N-[4-(methyl-pyridin-4-yl-amino)-benzyl]-acrylamide] | 368 nM
Cc1nn(C)c(C)c1/C=C/C(=O)N(Cc1ccc(N(C)c2ccncc2)cc1)C1CCN(Cc2ccccc2)CC1 [Example 165, (E)-N-(1-Benzyl-piperidin-4-yl)-N-[4-(methyl-pyridin-4-yl-amino)-benzyl]-3-(1,3,5-trimethyl-1H-pyrazol-4-yl)-acrylamide] | 192 nM
Cc1cc(Nc2ccc(CN(CCCN(C)C)C(=O)/C=C/c3ccc(C(F)(F)F)cc3)cc2)ccn1 [Example 166, (E)-N-(3-Dimethylamino-propyl)-N-[4-(2-methyl-pyridin-4-ylamino)-benzyl]-3-(4-trifluoromethyl-phenyl)-acrylamide] | 68 nM
Cc1cc(Nc2ccc(CN(CCCN(C)C)C(=O)/C=C/c3ccc(Cl)cc3)cc2)ccn1 [Example 167, (E)-3-(4-Chloro-phenyl)-N-(3-dimethylamino-propyl)-N-[4-(2-methyl-pyridin-4-ylamino)-benzyl]-acrylamide] | 110 nM
Cc1cc(Nc2ccc(CN(C(=O)/C=C/c3ccc(C(F)(F)F)cc3)C3CCN(C4CCCC4)CC3)cn2)ccn1 [Example 168, (E)-N-(1-Cyclopentyl-piperidin-4-yl)-N-[6-(2-methyl-pyridin-4-ylamino)-pyridin-3-ylmethyl]-3-(4-trifluoromethyl-phenyl)-acrylamide] | 42 nM
Cc1cc(Nc2ccc(CN(C(=O)/C=C/c3ccc(Cl)cc3)C3CCN(C4CCCC4)CC3)cn2)ccn1 [Example 169, (E)-3-(4-Chloro-phenyl)-N-(1-cyclopentyl-piperidin-4-yl)-N-[6-(2-methyl-pyridin-4-ylamino)-pyridin-3-ylmethyl]-acrylamide] | 134 nM
Cc1cc(Nc2ccc(CN(C(=O)/C=C/c3ccc(C(F)(F)F)cc3)C3CCN(C4CCCC4)CC3)nc2)ccn1 [Example 170, (E)-N-(1-Cyclopentyl-piperidin-4-yl)-N-[5-(2-methyl-pyridin-4-ylamino)-pyridin-2-ylmethyl]-3-(4-trifluoromethyl-phenyl)-acrylamide] | 67 nM
Cc1cc(Nc2ccc(CN(C(=O)/C=C/c3ccc(Cl)cc3)C3CCN(C4CCCC4)CC3)nc2)ccn1 [Example 171, (E)-3-(4-Chloro-phenyl)-N-(1-cyclopentyl-piperidin-4-yl)-N-[5-(2-methyl-pyridin-4-ylamino)-pyridin-2-ylmethyl]-acrylamide] | 134 nM
Cc1cc(Nc2ccc(CN(CC3CCN(C4CCN(C)CC4)CC3)C(=O)/C=C/c3ccc(C(F)(F)F)cc3)cc2)ccn1 [Example 172, (E)-N-(1′-Methyl-[1,4′]bipiperidinyl-4-ylmethyl)-N-[4-(2-methyl-pyridin-4-ylamino)-benzyl]-3-(4-trifluoromethyl-phenyl)-acrylamide] | 178 nM
Cc1cc(Nc2ccc(CN(CCCN3CCOCC3)C(=O)/C=C/c3ccc(C(F)(F)F)cc3)cc2)ccn1 [Example 173, (E)-N-[4-(2-Methyl-pyridin-4-ylamino)-benzyl]-N-(3-morpholin-4-yl-propyl)-3-(4-trifluoromethyl-phenyl)-acrylamide] | 355 nM
Cc1cc(Nc2ccc(CN(C(=O)/C=C/c3ccc(C(F)(F)F)cc3)C3CCN(C)CC3)cc2)ccn1 [Example 174, (E)-N-(1-Methyl-piperidin-4-yl)-N-[4-(2-methyl-pyridin-4-ylamino)-benzyl]-3-(4-trifluoromethyl-phenyl)-acrylamide] | 67 nM
Cc1cc(Nc2ccc(CN(CC3(O)CCN(C)CC3)C(=O)/C=C/c3ccc(C(F)(F)F)cc3)cc2)ccn1 [Example 175, (E)-N-(4-Hydroxy-1-methyl-piperidin-4-ylmethyl)-N-[4-(2-methyl-pyridin-4-ylamino)-benzyl]-3-(4-trifluoromethyl-phenyl)-acrylamide] | 334 nM
Cc1cc(Nc2ccc(CN(CCN(C)C)C(=O)/C=C/c3ccc(C(F)(F)F)cc3)cc2)ccn1 [Example 176, (E)-N-(2-Dimethylamino-ethyl)-N-[4-(2-methyl-pyridin-4-ylamino)-benzyl]-3-(4-trifluoromethyl-phenyl)-acrylamide] | 58 nM
CN1CCC(N(C)c2ccc(CN(C(=O)/C=C/c3ccc(C(F)(F)F)cc3)C3CCN(Cc4ccccc4)CC3)cc2)CC1 [Example 177, (E)-N-(1-Benzyl-piperidin-4-yl)-N-{4-[methyl-(1-methyl-piperidin-4-yl)-amino]-benzyl}-3-(4-trifluoromethyl-phenyl)-acrylamide] | 238 nM
CN1CCC(N(C)c2ccc(CN(C(=O)/C=C/c3ccc(OC(F)(F)F)cc3)C3CCN(Cc4ccccc4)CC3)cc2)CC1 [Example 178, (E)-N-(1-Benzyl-piperidin-4-yl)-N-{4-[methyl-(1-methyl-piperidin-4-yl)-amino]-benzyl}-3-(4-trifluoromethoxy-phenyl)-acrylamide] | 343 nM
